Data as given in PMC12040169 (PLOS Biology, 2025).

Experiment: in vitro
Conditions: human, hela cells, % viability

| SMILES | viability at 28.5 h, 10 µM [%] | viability at 28.5 h, 10 µM (bulk resorufin, single well) [%] |
| --- | --- | --- |
| O=C(Nc1ccc2n(c1=O)C[C@H]1C[C@@H]2CN(C(=O)NC2CCCCC2)C1)c1cnccn1 [CBK289076] | 86.8 | – |
| O=[N+]([O-])c1ccc(CN2CCN(c3nccnc3OCc3ccc(Cl)c(Cl)c3)CC2)cc1 [CBK083076T] | 101 | – |
| Oc1ccc(-n2ncc(-c3ccc(F)cc3)n2)cc1 [CBK112904] | 79.7 | – |
| COc1ccc(SCC(=O)Nc2nccs2)cc1 [CBK287751] | 83.4 | – |
| Cc1ccccc1Nc1nc(N)nc(CN(CCC#N)CC2CCC2)n1 [CBK305308] | 89.3 | – |
| CCCc1cnc(N2CCOCC2)nc1 [CBK028742] | 89 | – |
| CC1(C)SC(NCC2CCCCC2)=NC1=O [CBK067808] | 91.2 | – |
| O=c1nc(-c2cc(Br)cs2)[nH]c2ccc(Cl)cc12 [CBK018959] | 90.5 | – |
| O=C(CSc1nnnn1C1CC2CCC1C2)Nc1ccnc2ccccc12 (stereo not shown) [CBK267901] | 89.4 | – |
| Cc1cc(C)nc(CCNCc2c(C(C)C)nn(C)c2N(C)C)n1 [CBK305159] | 112 | – |
| O=C1/C(=C/c2ccc(OCc3cccc([N+](=O)[O-])c3)cc2)SC(=S)N1CCc1ccccc1 [CBK264641] | 92.6 | – |
| CCN1CCCC1CNC(=O)c1cc([N+](=O)[O-])c(N(C)C)cc1OC (stereo not shown) [CBK262595] | 95.8 | – |
| CCOc1ncccc1CNc1ncnc2c1cnn2CCO [CBK305964] | 97 | – |
| CCCC(=O)N1CCC(c2nnc(-c3ccsc3)o2)CC1 [CBK283377] | 85.5 | – |
| CO[C@]1(c2ccc(Cl)cc2)CC[C@H](NCCCC(=O)c2ccc(F)cc2)CC1 [CBK015959C] | 90.2 | – |
| CC1CC1C(=O)NCC(=O)Nc1nc2ccc(OC(F)(F)F)cc2s1 (stereo not shown) [CBK297874] | 98.3 | – |
| COc1ccc2cc(CN(CCNC(=O)OC(C)(C)C)C(=O)NC3CCCCC3)c(=O)[nH]c2c1 [CBK132074] | 101 | – |
| CS(=O)(=O)c1ccc(-c2nc(N)cc3ccccc23)cc1 [CBK085724] | 96.1 | – |
| COCCOc1nnc(C)c2ccccc12 [CBK019388] | 93.6 | – |
| CC1(C)Sc2nc3ccccc3n2C1=O [CBK022971] | 85.4 | – |
| O=C(Nc1ccccc1)NC1CC2CCC(C1)N2Cc1nnnn1Cc1ccco1 (stereo not shown) [CBK085071] | 107 | – |
| CS(=O)(=O)Nc1ccc(C(=O)NCCN2CCOCC2)cc1 [CBK269781] | 93.2 | – |
| CC(C)(CN)CN(Cc1ccccc1Br)C(=O)NCc1ccc(F)cc1 [CBK002469C] | 92.9 | – |

| SMILES | viability at 28.5 h, 10 µM [%] | viability at 28.5 h, 10 µM (bulk resorufin, single well) [%] |
| --- | --- | --- |
| O=C(COC(=O)c1ccc2c(c1)C(=O)N(c1ccc(Oc3ccccc3)cc1)C2=O)c1ccc(Br)cc1 [CBK261607] | 105 | – |
| O=C(c1ccncc1)N1Cc2ccccc2C1 [CBK200316] | 103 | – |
| CCCCNC(=S)N[C@H]1CC[C@@]2(Cc3ccc(OC)cc3)CCN(C)[C@H]2C1 [CBK004258] | 108 | – |
| CCSc1nnc(-c2cccc(C)c2)n1CC1CCCO1 (stereo not shown) [CBK085413] | 93.1 | – |
| CCN1CCC(Oc2nccnc2OCCN2CCOCC2)CC1 [CBK082931] | 94.6 | – |
| COC(=O)Nc1cc2sccc2nc1C(F)(F)F [CBK019229] | 80 | – |
| Cc1ccc(SCCNC(=O)COc2ccc(Cl)cc2Cl)cc1 [CBK263976] | 86.6 | – |
| C/C(=N/OCC(=O)Nc1oc(-c2ccccc2)c(-c2ccccc2)c1C#N)c1cccs1 [CBK262932] | 89.6 | – |
| O=C1CC2CC3CC2C(Sc2ccccc2)C3O1 (stereo not shown) [CBK016225] | 97.4 | – |
| CCc1nc2c(OCC3CCCCC3)cccn2c1N(C=O)Cc1ccc(OC)cc1 [CBK147811] | 100 | – |
| Cc1cc(-c2cc(C)n[nH]2)[nH]n1 [CBK262079] | 107 | – |
| CN1CCN(C(=O)c2ccsc2NS(=O)(=O)c2ccc(-c3ccccc3)cc2)CC1 [CBK042274] | 103 | – |
| Oc1ccc(Br)cc1C(c1c(O)nc(S)nc1O)c1c(O)nc(S)nc1O [CBK265367] | – | 103 |
| CCOC(=O)Cn1nnc(-c2ccc(Cl)cc2)n1 [CBK069596] | 95.8 | – |
| Cc1[nH]c2cccc(C(=O)N(C)CCc3cn[nH]c3)c2c1C [CBK283070] | 85.4 | – |
| O=C(CCSc1nc(-c2ccco2)cc(C(F)(F)F)n1)N1CCN(c2ccccn2)CC1 [CBK267626] | 99 | – |
| CCc1nnc(NC(=O)c2cccc(F)c2)s1 [CBK273362] | 90.4 | – |
| NS(=O)(=O)c1ccc2nc(NC(=O)c3ccc(N4C(=O)CCC4=O)cc3)sc2c1 [CBK291192] | 117 | – |
| CC(=C\C(=O)O)/C(=C\c1ccc(Br)cc1)C(=O)O [CBK278280N] | 88.1 | – |
| COc1ccc(-c2nc(NC(=O)C3CC3)cnc2-c2cccc(C(F)(F)F)c2)cc1 [CBK036852] | 98 | – |
| CCN(CC)C(=O)C1CCCN(Cc2cccc(Oc3ccccc3)c2)C1 (stereo not shown) [CBK261581] | 92.6 | – |
| O=C(Nc1ccc(F)cc1)c1ccsc1NS(=O)(=O)Cc1ccccc1 [CBK042303] | 82.8 | – |
| Cc1cn(C2CC(O)C(CNC(=O)C(F)(F)F)O2)c(=O)[nH]c1=O (stereo not shown) [CBK201200] | 98 | – |

| SMILES | viability at 28.5 h, 10 µM [%] | viability at 28.5 h, 10 µM (bulk resorufin, single well) [%] |
| --- | --- | --- |
| Cn1c2c(c3ccccc31)C(=O)NCC2 [CBK003517] | 89 | – |
| COCCNc1cccc(Cn2c(=O)n(C)c3c2c(=O)nc(OC)n3C)c1 [CBK022052] | 84.3 | – |
| O=S(=O)(c1ccc(C(F)(F)F)cc1)N1CCC2(CC1)OCCO2 [CBK044520] | 91.1 | – |
| CNC(=O)c1sc2ccccc2c1C1CCN(Cc2ccc(OC)c(OC(C)C)c2)C1 (stereo not shown) [CBK285928] | 95.5 | – |
| O=C(c1csc2c1CCCC2)N1CCc2c(nc[nH]c2=O)C1 [CBK283717] | 77.7 | – |
| Cc1sc2nc(C)n(C3CCNCC3)c(=O)c2c1C [CBK282421] | 113 | – |
| CC(=O)Nc1ccc(NC(=O)CSCC(=O)O)cc1 [CBK226269] | 89.3 | – |
| COc1cc(/C=C2\NC(=O)N(Cc3ccc([N+](=O)[O-])cc3)C2=O)ccc1OC(C)C(=O)O (stereo not shown) [CBK265348] | 107 | – |
| CCCN(CC1CCCO1)C(=O)c1cc2ccc(OC)cc2n1C (stereo not shown) [CBK282139] | 92.8 | – |
| NC(=O)C1(Cc2ccc(-c3ccccc3)cc2)CCN(C(=O)COc2ccccc2)CC1 [CBK285773] | 95.9 | – |
| Cc1cn2c(nc1=O)OC[C@H]1O[C@@H]2C[C@H]1O [CBK201280] | 93.5 | – |
| Cc1nc(CC(=O)Nc2ccc(N3CCOCC3)cn2)cs1 [CBK305251] | 91 | – |
| CN(C)c1cccc(-c2nc(-c3ccc(C#N)cc3)cnc2N)c1 [CBK064049] | 91.5 | – |
| Cc1ccccc1-n1ccn(S(=O)(=O)C(C)C)c1=O [CBK106566] | 89.7 | – |
| Cc1nc(C(F)(F)F)ccc1C(=O)N(C)CCN1CCCCC1 [CBK281917] | 87.3 | – |
| Cc1ccc(S(=O)(=O)N(CC(=O)Nc2cccnc2)c2ccc(C)c(C)c2)cc1 [CBK263974] | 75.4 | – |
| O=C(NCc1nc2ccccc2[nH]1)c1cc(Br)cnc1N1CCOCC1 [CBK076278] | 96.7 | – |
| O=C(c1ccc2c(c1)N(Cc1ccccc1Cl)C(=O)CO2)c1cccs1 [CBK286411] | 94.2 | – |
| COc1ccc(CN2CCCn3c4c(c5cc(C)ccc53)CCCC42)cc1OCc1ccccc1 (stereo not shown) [CBK262879] | 96.4 | – |
| COc1ccccc1NC(=O)c1c(NC(=O)c2cccs2)sc2c1CCC(C(C)(C)C)C2 (stereo not shown) [CBK264123] | 100 | – |
| Cc1ccc(C(=O)N2CCN(Cc3ccccc3)CC2)cn1 [CBK200170] | 93.6 | – |
| CC(=O)N1CCc2c(sc(NC(=O)c3ccc(C)cc3)c2C#N)C1 [CBK304411] | 52.6 | – |
| Cc1nn(C)c(C)c1CN(C)S(=O)(=O)Cc1ccc(F)cc1 [CBK281590] | 86.8 | – |

| SMILES | viability at 28.5 h, 10 µM [%] | viability at 28.5 h, 10 µM (bulk resorufin, single well) [%] |
| --- | --- | --- |
| CN(CC(=O)O)S(=O)(=O)c1ccc2c(c1)OCCO2 [CBK263904] | 95.8 | – |
| O=C(c1ccncc1)N1C2CCC1CC(O)(c1ccc(F)cc1)C2 (stereo not shown) [CBK283545] | 95.6 | – |
| COc1cccc(CNc2nccnc2-c2ccsc2)c1OC [CBK037543] | 107 | – |
| COc1ccc(C2CCN(Cc3ccncc3)CC2)cc1 [CBK283563] | 95.8 | – |
| CCN(CC)C(=O)c1sccc1NS(=O)(=O)Cc1ccccc1 [CBK050393] | 106 | – |
| Cc1ccccc1C(=O)N1CCC(O)(Cn2ccnc2C)CC1 [CBK284950] | 105 | – |
| COc1cccc2c3c([nH]c12)C1(CCCN(CCc2ccc(F)cc2)C1)NCC3 (stereo not shown) [CBK039251] | 97.9 | – |
| OCc1ccccc1-c1nccnc1NCc1ccc2c(c1)OCO2 [CBK038046] | 95.7 | – |
| O=c1cc(CN2CCC(Oc3nccnc3OCc3ccc(Cl)c(Cl)c3)CC2)[nH]c(=O)[nH]1 [CBK153784] | 96.6 | – |
| Cc1cc2c(N3CCCC(NS(C)(=O)=O)C3)nccc2o1 (stereo not shown) [CBK306464] | 93.4 | – |
| CCNC(=O)C1=C(C(=O)NCC)N2C(=NC(C)(C)c3ccccc32)S1 [CBK010172] | 102 | – |
| COc1cc(N2CCCNCC2)ncn1 [CBK085485C] | 91.6 | – |
| Cc1ccc(C2CC(=O)c3cnc(N)nc3C2)cc1 (stereo not shown) [CBK288166] | 92 | – |
| COc1ccc(C(=O)N2CCC3(CCCN(C(=O)c4cscn4)C3)C2)cc1OC (stereo not shown) [CBK131659] | 92 | – |
| Cc1cc(C)n(CC(O)CN2C(=O)NC(C)(C)C2=O)n1 (stereo not shown) [CBK264811] | 107 | – |
| CCn1cc(CN2C3CCC2CC(O)(c2ccc(F)cc2)C3)cn1 (stereo not shown) [CBK282741] | 77.3 | – |
| Brc1cnn(-c2ccccc2)c1 [CBK027172] | 87.6 | – |
| Cc1nonc1/N=N/N(CC(=O)N1CCOCC1)c1nonc1C [CBK262399] | 103 | – |
| O=c1cc(N2CCOCC2)oc2cccc(O)c12 [CBK016536] | 91.3 | – |
| CC1CCc2nc3ccccc3c(C(=O)N(C)Cc3cnn(C)c3)c2C1 (stereo not shown) [CBK305749] | 96.9 | – |
| Cc1nccn1CCNC(=O)CCc1cn(C)c2ccccc12 [CBK281962] | 86.1 | – |
| Cc1ccc(NC(=O)CSc2nnc(COc3ccc(Cl)cc3Cl)o2)cc1Cl [CBK264113] | 90.9 | – |
